From the NIST ThermoML archive (doi:10.1016/j.fluid.2004.10.028)

Settings: Liquid, Capillary tube (Ostwald / Ubbelohde) method

O [water]
viscosity [mPa·s]
Settings | 296.7 K | 338.3 K | 372.4 K | 413.62 K | 469.4 K | 500.22 K | 544.23 K | 573.7 K
5000 kPa | 0.918 | 0.431 | 0.286 | 0.196 | – | – | – | –
10000 kPa | 0.917 | 0.434 | 0.287 | 0.197 | 0.138 | 0.12 | 0.0983 | 0.086
20000 kPa | 0.915 | 0.435 | 0.288 | 0.201 | 0.141 | 0.123 | 0.1012 | 0.0891
40000 kPa | 0.914 | 0.44 | 0.293 | 0.205 | 0.145 | 0.127 | 0.106 | 0.095
